We go through eight compounds from patent US7498321B2, “17β-carbothioate 17α-arylcarbonyloxyloxy androstane derivative as anti-inflammatory agents” (Glaxo Group Limited, priority 2000, dated 2009).

Each structure is given as a SMILES string. Values joined by “and” are separate entries in the source; they are usually repeats but may differ in a detail not shown here. Identical values can stand only once. Where only a bound is given, the exact number is not on record here.

A short description of data set [1]: Pharmacokinetics after intravenous (IV) and oral dosing in rats. As to conditions: rat; for plasma clearance (in words): in vivo. The format is in vivo, male Wistar Han rats.
The target in data set [2] is T1, glucocorticoid receptor (GR) (Homo sapiens, UniProt P04150).
T1 construct: A549 cells stably transfected with a reporter gene containing the NF-κB responsive elements from the ELAM gene promoter; endogenous in cells; host or cells: A549 human lung epithelial cells (stably transfected with reporter only)
T1 sequence (P04150 1-777): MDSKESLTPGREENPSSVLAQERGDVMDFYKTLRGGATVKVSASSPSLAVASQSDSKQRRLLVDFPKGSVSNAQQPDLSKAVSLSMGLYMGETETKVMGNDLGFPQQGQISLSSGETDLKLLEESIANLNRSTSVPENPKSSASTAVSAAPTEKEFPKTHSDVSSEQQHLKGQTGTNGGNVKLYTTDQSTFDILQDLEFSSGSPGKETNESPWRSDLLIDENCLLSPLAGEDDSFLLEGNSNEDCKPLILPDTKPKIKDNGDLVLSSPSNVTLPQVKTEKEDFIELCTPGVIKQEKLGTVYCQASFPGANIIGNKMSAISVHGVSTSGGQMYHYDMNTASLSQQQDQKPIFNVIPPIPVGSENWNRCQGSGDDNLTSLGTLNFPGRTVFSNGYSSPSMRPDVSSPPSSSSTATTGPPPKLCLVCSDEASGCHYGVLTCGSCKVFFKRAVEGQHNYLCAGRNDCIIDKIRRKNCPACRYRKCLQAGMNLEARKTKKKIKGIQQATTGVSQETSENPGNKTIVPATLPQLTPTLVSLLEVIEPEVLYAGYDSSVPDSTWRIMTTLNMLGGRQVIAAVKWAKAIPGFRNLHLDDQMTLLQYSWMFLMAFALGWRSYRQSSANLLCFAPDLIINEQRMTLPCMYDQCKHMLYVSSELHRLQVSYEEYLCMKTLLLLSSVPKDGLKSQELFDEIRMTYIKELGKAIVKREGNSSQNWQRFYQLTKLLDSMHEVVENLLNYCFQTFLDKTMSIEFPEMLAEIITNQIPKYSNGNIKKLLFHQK
The experiment in a line: Functional in vitro assay of glucocorticoid agonist activity (NF-κB/ELAM-sPAP reporter in A549 cells, TNF stimulated). Type of data set: cell-based. As to conditions: in vitro functional glucocorticoid agonist assays; versus Example 1. Here is the method:
Pharmacological activity was assessed in a functional in vitro assay of glucocorticoid agonist activity which is generally predictive of anti-inflammatory or anti-allergic activity in vivo.
The functional assay was based on that described by K. P. Ray et al., Biochem J. (1997), 328, 707-715. A549 cells stably transfected with a reporter gene containing the NF-κB responsive elements from the ELAM gene promoter coupled to sPAP (secreted alkaline phosphatase) were treated with test compounds at appropriate doses for 1 hour at 37° C. The cells were then stimulated with tumour necrosis factor (TNF, 10 ng/ml) for 16 hours, at which time the amount of alkaline phosphatase produced is measured by a standard colourimetric assay. Dose response curves were constructed from which EC50 values were estimated.

A short description of data set [3]: Pharmacokinetics after intravenous administration in the anaesthetised pig. Type of data set: in vivo. The text has this:
The clearance of these two glucocortocoids is similar is this experimental pig model.

The next data set deals with rat hepatocytes. The experiment in a line: In vitro metabolism in rat hepatocytes. Type of data set: in vitro ADME.
A short description of data set [4]: Pharmacokinetics after intra-tracheal dry powder dosing in the pig. Type of data set: in vivo. As to conditions: for time after dosing up to which quantifiable in plasma: anaesthetised pigs, intra-tracheal 1 mg, LLOQ 10 (Example 1) and 20 pg/mL (fluticasone propionate). The protocol:
Serial blood samples were taken for up to 8 h following dosing.

The next data set deals with human hepatocytes. The data set is described as follows: In vitro metabolism in human hepatocytes. The format is in vitro ADME. Particulars: for 17-β acid metabolite production: 37° C., 10 μM.

For `Cc1cc(C(=O)OC2(C(=O)SCF)C(C)CC3C4CC(F)C5=CC(=O)C=CC5(C)C4(F)C(O)CC32C)on1` (stereo not drawn) [Example 25, 6α,9α-Difluoro-11β-hydroxy-16α-methyl-17α-[(3-methylisoxazole-5-carbonyl)oxy]-3-oxo-androsta-1,4-diene-17β-carbothioic acid S-fluoromethyl ester], the “plasma clearance (in words)” value in data set [1] is “approaching hepatic blood flow”.

On to `C[C@@H]1C[C@H]2[C@@H]3C[C@H](F)C4=CC(=O)C=C[C@]4(C)[C@@]3(F)[C@@H](O)C[C@]2(C)[C@@]1(OC(=O)c1ccco1)C(=O)O` [Metabolite (X)], for which the “fold less active than the parent compound” value in data set [2] is listed as more than 1000 fold.

On to `C[C@@H]1CC2C3C[C@H](F)C4=CC(=O)C=C[C@]4(C)[C@@]3(F)[C@@H](O)C[C@]2(C)[C@@]1(OC(=O)c1ccco1)C(=O)SCF` (stereo partly drawn) [Example 1, 6α, 9α-Difluoro-17α-[(2-furanylcarbonyl)oxy]-11β-hydroxy-16α-methyl-3-oxo-androsta-1,4-diene-17β-carbothioic acid S-fluoromethyl ester], for which the “plasma clearance (in words)” value in data set [1] is “approaching hepatic blood flow”. The oral bioavailability in data set [1] (oral 0.1 mg/kg vs IV 0.1 mg/kg, 0.1 mg/kg) was < 1% and 0.9%. Besides, in data set [3] (IV 0.1 mg/kg), the “clearance compared with fluticasone propionate (in words)” value is on record as “similar”. For the same compound, the “pharmacokinetic parameters compared with fluticasone propionate (in words)” value in data set [3] (IV mixture of the two compounds at 0.1 mg/kg) is “the same”. Besides, the “manner of metabolism (in words)” value in the data set on rat hepatocytes and in the data set with human hepatocytes (human hepatocytes) was “metabolised in an identical manner to fluticasone propionate” in each case. In addition, the “AUC (0-inf)” value in data set [4] (Pig 1, intra-tracheal 1 mg dry powder blend in lactose) is 0.254 ng·h/mL; in data set [4] (Pig 2, intra-tracheal 1 mg dry powder blend in lactose), 0.221 ng·h/mL. In data set [4], the “time after dosing up to which quantifiable in plasma” value is recorded as “up to 2 hours”. Further, the “17-β acid metabolite production” value in the data set with human hepatocytes (subject 1, 0.2 million cells/mL) was found to be 48.9 pmol/h; in the data set on human hepatocytes (subject 1, 0.7 million cells/mL) it was 73.3 pmol/h; in the data set on human hepatocytes (subject 2, 0.2 million cells/mL) it was 118 pmol/h; with human hepatocytes (subject 2, 0.7 million cells/mL), 903 pmol/h; in the data set on human hepatocytes (subject 3, 0.7 million cells/mL), 580 pmol/h.

As for `CC1CC2C3CC(F)C4=CC(=O)C=CC4(C)C3(F)C(O)CC2(C)C1(OC(=O)c1ccon1)C(=O)SCF` (stereo not drawn) [Example 28, 6α,9α-Difluoro-11β-hydroxy-17α-[(isoxazole-3-carbonyl)oxy]-16α-methyl-3-oxo-androsta-1,4-diene-17β-carbothioic acid S-fluoromethyl ester], in data set [1], the “plasma clearance (in words)” value is on record as “approaching hepatic blood flow”.

With `CC1CC2C3CC(F)C4=CC(=O)C=CC4(C)C3(F)C(O)CC2(C)C1(OC(=O)c1ccsc1)C(=O)SCF` (stereo not drawn) [Example 4, 6α,9α-Difluoro-11β-hydroxy-16α-methyl-3-oxo-17α-[(3-thienylcarbonyl)oxy]-androsta-1,4-diene-17β-carbothioic acid S-fluoromethyl ester], the “plasma clearance (in words)” value in data set [1] is “approaching hepatic blood flow”.

Take `Cc1cc(C(=O)OC2(C(=O)SCF)C(C)CC3C4CC(F)C5=CC(=O)C=CC5(C)C4(F)C(O)CC32C)no1` (stereo not drawn) [Example 24, 6α,9α-Difluoro-11β-hydroxy-16α-methyl-17α-[(5-methylisoxazole-3-carbonyl)oxy]-3-oxo-androsta-1,4-diene-17β-carbothioic acid S-fluoromethyl ester]: the “plasma clearance (in words)” value in data set [1] is reported as “approaching hepatic blood flow”.

With `CCC(=O)O[C@]1(C(=O)SCF)[C@H](C)C[C@H]2[C@@H]3C[C@H](F)C4=CC(=O)C=C[C@]4(C)[C@@]3(F)[C@@H](O)C[C@@]21C` [Fluticasone propionate, 6α, 9α-Difluoro-17α-(1-oxopropoxy)-11β-hydroxy-16α-methyl-3-oxo-androsta-1,4-diene-17β-carbothioic acid S-fluoromethyl ester, reference compound], the “time after dosing up to which quantifiable in plasma” value in data set [4] is given as “up to 8 hours”.

With `Cc1ccoc1C(=O)OC1(C(=O)SCF)C(C)CC2C3CC(F)C4=CC(=O)C=CC4(C)C3(F)C(O)CC21C` (stereo not drawn) [Example 19, 6α,9α-Difluoro-11β-hydroxy-16α-methyl-17α-[(3-methylfuran-2-carbonyl)oxy]-3-oxo-androsta-1,4-diene-17β-carbothioic acid S-fluoromethyl ester], in data set [1], the “plasma clearance (in words)” value is “approaching hepatic blood flow”.
